Experimental data from patent US20160120865A1, “TOPICAL TREATMENT OF LOCALIZED SCLERODERMA” (PRECISION DERMATOLOGY, INC., priority 2013, published 2016).

Tested on: TGFβ activated genes
Assay: TGF-β osmotic pump mouse skin model, gene expression by nanostring
Assay type: in vivo, C57BL/6 mice
Parameters: key to Adam12 expression, TGFb/TGFbimatinib / spp1 expression, TGFb/TGFbimatinib / Thbs1 expression, TGFb/TGFbimatinib / Col1a1 expression, TGFb/TGFbimatinib / Sfrp2 expression, TGFb/TGFbimatinib / acta2 expression, TGFb/TGFbimatinib / Angpt2 expression, TGFb/TGFbimatinib / lox expression, TGFb/TGFbimatinib / Fmod expression, TGFb/TGFbimatinib / Wisp1 expression, TGFb/TGFbimatinib / serpine1 expression, TGFb/TGFbimatinib: TGFβ treatment works and the effect is blocked by imatinib in the local skin (+); DS+ skin (−)
Conditions: for serpine1 expression, TGFb/TGFbimatinib / Adam12 expression, TGFb/TGFbimatinib / spp1 expression, TGFb/TGFbimatinib / Thbs1 expression, TGFb/TGFbimatinib / Col1a1 expression, TGFb/TGFbimatinib / Sfrp2 expression, TGFb/TGFbimatinib / acta2 expression, TGFb/TGFbimatinib / Angpt2 expression, TGFb/TGFbimatinib / lox expression, TGFb/TGFbimatinib / Fmod expression, TGFb/TGFbimatinib / Wisp1 expression, TGFb/TGFbimatinib: imatinib cream topical 2 times per day, 7 days; for serpine1 expression, TGFb/TGFbimatinib: FIG. 3; for Adam12 expression, TGFb/TGFbimatinib: FIG. 4; for spp1 expression, TGFb/TGFbimatinib: FIG. 5; for Thbs1 expression, TGFb/TGFbimatinib: FIG. 6; for Col1a1 expression, TGFb/TGFbimatinib: FIG. 7; for Sfrp2 expression, TGFb/TGFbimatinib: FIG. 8; for acta2 expression, TGFb/TGFbimatinib: FIG. 9; for Angpt2 expression, TGFb/TGFbimatinib: FIG. 10; for lox expression, TGFb/TGFbimatinib: FIG. 11; for Fmod expression, TGFb/TGFbimatinib: FIG. 12; for Wisp1 expression, TGFb/TGFbimatinib: FIG. 13
Description: C57BL/6 mice were obtained from The Jackson Laboratory (Bar Harbor, Me.). Osmotic pumps (Alzet, model 2001) designed to deliver 1 μL/h were loaded with TGF-β (1.25 μg) in phosphate buffered saline (PBS) supplemented with 0.1 mg/mL bovine serum albumin (BSA). Pumps were implanted subcutaneously in 8-week-old mice, who were subsequently treated with imatinib or placebo cream. After […], mice were sacrificed, and the skin (˜1 cm^2) surrounding the pump outlet was homogenized in TRIzol (Invitrogen) for preparation of RNA, or fixed in formalin. Skin from mice treated with PBS and TGF-β was analyzed using nanostring technology. A set of 50 genes including inflammatory genes, macrophages markers, TGF-β-regulated genes, and others were analyzed. 100 ng of RNA per sample was used and gene expression was normalized to the expression of 8 housekeeping-genes.
TGFb 2.5 μg/mL in 7 day Alzet pump.
imatinib cream topical application 7 days (2 times per day)
(3) −DS=Far from local skin

With Cc1ccc(NC(=O)c2ccc(CN3CCN(C)CC3)cc2)cc1Nc1nccc(-c2cccnc2)n1 [imatinib] the “serpine1 expression, TGFb/TGFbimatinib” value (DS+ (near local skin)) was “(−)”, the “Adam12 expression, TGFb/TGFbimatinib” value (DS+ (near local skin)) was “(−)” and the “spp1 expression, TGFb/TGFbimatinib” value (DS+ (near local skin)) was “(−)”. The “Thbs1 expression, TGFb/TGFbimatinib” value (DS+ (near local skin)) was “(−)”, the “Col1a1 expression, TGFb/TGFbimatinib” value (DS+ (near local skin)) was “(−)” and the “Sfrp2 expression, TGFb/TGFbimatinib” value (DS+ (near local skin)) was “(−)”. The “acta2 expression, TGFb/TGFbimatinib” value (DS+ (near local skin)) was “(−)”, the “Angpt2 expression, TGFb/TGFbimatinib” value (DS+ (near local skin)) was “(−)” and the “lox expression, TGFb/TGFbimatinib” value (DS+ (near local skin)) was “(−)”. For the same compound, the “Fmod expression, TGFb/TGFbimatinib” value (DS+ (near local skin)) was “(−)”, the “Wisp1 expression, TGFb/TGFbimatinib” value (DS+ (near local skin)) was “(−)” and the “serpine1 expression, TGFb/TGFbimatinib” value (LS (local skin)) was “(+)”. The “Adam12 expression, TGFb/TGFbimatinib” value (LS (local skin)) was “(+)”, the “spp1 expression, TGFb/TGFbimatinib” value (LS (local skin)) was “(+)” and the “Thbs1 expression, TGFb/TGFbimatinib” value (LS (local skin)) was “(+?)”. The “Col1a1 expression, TGFb/TGFbimatinib” value (LS (local skin)) was “(+)”, the “Sfrp2 expression, TGFb/TGFbimatinib” value (LS (local skin)) was “(+)” and the “acta2 expression, TGFb/TGFbimatinib” value (LS (local skin)) was “(+)”. For the same compound, the “Angpt2 expression, TGFb/TGFbimatinib” value (LS (local skin)) was “(+)”, the “lox expression, TGFb/TGFbimatinib” value (LS (local skin)) was “(+)” and the “Fmod expression, TGFb/TGFbimatinib” value (LS (local skin)) was “(+)”. The “Wisp1 expression, TGFb/TGFbimatinib” value (LS (local skin)) was “(+)”, the “effect of TGFβ treatment in skin” value (local skin (+) and DS+ skin (−), topical imatinib cream) was “blocked” and the “activation of TGFβ activated genes” value (mouse skin, topical imatinib cream) was “inhibits the activation of these genes”.
